# From patent publication US6579982B1, “Pyrimidine-2,4,6-trione metalloproteinase inhibitors” (Pfizer Inc., priority 1999, dated 2003)
row,melting point [°C],Compound
1,182,CC1(Oc2ccc(Oc3ccccc3)cc2)C(=O)NC(=O)NC1=O
2,59 to 60,CCCCC1(Oc2ccc(Oc3ccccc3)cc2)C(=O)NC(=O)NC1=O
3,187 to 189,CC1(Oc2ccc(Oc3ccc(F)cc3)cc2)C(=O)NC(=O)NC1=O
4,183,CCCCC1(Oc2ccc(Oc3ccc(F)cc3)cc2)C(=O)NC(=O)NC1=O
5,175,CC1(Oc2cccc(-c3ccccc3)c2)C(=O)NC(=O)NC1=O
6,200 to 202,CC1(Oc2ccc(-c3ccccc3)cc2)C(=O)NC(=O)NC1=O
